Results taken from patent US10172951B2, “Dendrimer based nanodevices for therapeutic and imaging purposes” (priority 2009, dated 2019).
Entries after “also recorded” stand apart in the source; their conditions may differ.

How the values were obtained:
[1] = Stability (oxidation) of free NAC and free GSH in PBS; type: physicochemical; conditions: over 17 hours
Experimental: (§1) The conjugates were also analyzed in the absence of GSH to verify the stability of the disulfide linkage at physiological pH. […] The extent of the release of drug from both dendrimer-NAC conjugates was also analyzed at plasma and intracellular GSH concentrations. The conjugates and the GSH in required amounts were added to PBS solution, and the solution was analyzed at various time intervals by HPLC for up to 17 hours. UV absorbance peak areas were used to determine the concentrations of each of the species in the solution, based on appropriate calibration curves.

[2] = cited from earlier work
BV-2 cells [3] = test: ROS assay, percent reduction in H2O2 in LPS-treated BV-2 cells (Example 19); type: cell-based, mouse; conditions: co-treatment with LPS
Experimental: Cells were treated with lipopolysaccharide (LPS) to induce the production of ROS. The cells were treated with LPS (100 ng/ml) and either NAC, PAMAM-S—S-NAC, or free PAMAM-NH2 dendrimers at appropriate concentrations to study the efficacy of the conjugates for reducing the ROS concentrations. In order to quantify the efficacy of conjugates, H2O2 released from BV-2 cells (ROS) was measured using the Amplex Red Hydrogen Peroxide/Peroxidase Assay Kit using previously established procedures.

microglial cells = test: Cytotoxicity assay in microglial cells (Example 18); type: cell-based, mouse; conditions: concentrations tested in vitro
BV-2 cells [4] = test: NO release assay (nitrite, Griess), PEG-NAC conjugates; type: cell-based, mouse; conditions: highest concentration 5 mM
Experimental: (A) BV-2 cells (passage 22) were co-treated with 100 ng/mL of LPS and the indicated concentration of NAC, PEG-NAC conjugate 1 and its corresponding PEG for 72 hours. (B) BV-2 cells were co-treated with 100 ng/mL of LPS and the indicated concentration of NAC, PEG-NAC conjugate 2 its corresponding PEG for 72 hours. Nitrite in culture medium was measured using Griess reagent system.
Production of NO was assayed by measuring the levels of nitrite, the stable NO metabolite, in supernatant. Accumulation of nitrite in supernatant was determined by colorimetric assay with Griess reagent system, which uses sulfanilamide and N-(1-Naphthyl)-ethylene diamine. 100 μL of the supernatant was incubated with 50 μL of Griess reagent 1 (sulfanilamide) and 50 μL of Griess reagent 2 N-(1-Naphthyl)-ethylenediamine for 10 min at room temperature. The absorbance at 540 nm was then measured, and nitrite concentration was determined using a curve calibrated with nitrite standards.

BV-2 cells [5] = test: ROS assay (H2O2, Amplex Red), PEG-NAC conjugates; type: cell-based, mouse; conditions: highest concentration 5 mM
Experimental: (A) BV-2 cells (passage 22) were co-treated with 100 ng/mL of LPS and the indicated concentration of NAC, PEG-NAC conjugate 1 and its corresponding PEG for 72 hours. (B) BV-2 cells were co-treated with 100 ng/mL of LPS and the indicated concentration of NAC, PEG-NAC conjugate 2 and its corresponding PEG for 72 hours. The amount of ROS released into the media was measured using Amplex Red.
(§2) H2O2 released from BV-2 cells was measured using 10-acetyl-3,7-dihydroxyphenoxazine (Amplex Red), following the manufacturer's instructions. Briefly, the procedure for cell culture and drug treatment was the same as described in previous section. The supernatant was mixed with 0.05 U/mL of horseradish peroxidase and 1 μM of Amplex Red in 96-well plates. After 30 min incubation, the fluorescence intensity was measured using spectrofluorometry. Excitation and emission wavelengths were 530 nm and 590 nm.

BV-2 cells [6] = test: ROS assay in LPS-activated BV-2 cells, 3 hours pre-treatment (Example 18); type: cell-based, mouse; conditions: for H2O2 reduction (%): 72 hours LPS following 3 hours treatment; for effect on ROS production: 24 hours LPS following 3 hours pre-treatment, 0.5-8 mM
Experimental: (§3) BV-2 cells (passage 16) were seeded in 24 well plates at 10^5/mL/well and incubated for 24 hours. The medium was removed, and the cells were exposed to 100 ng/mL of LPS and varying concentrations of PAMAM-(COOH)46-(NAC)18 conjugate in 500 μL of serum free medium for 3 hours. The medium was removed again, and 500 μL of fresh serum free medium containing 100 ng/mL of LPS was added and incubated for 24 hours and 72 hours. Control treatment with varying concentrations of free NAC, positive control with 100 ng/mL of LPS induction, but negative control without any LPS induction and treatment were also studied. The culture medium was collected at specific time intervals of 24 hours and 72 hours, and spun at 1500 rpm for 5 min. The supernatant was stored at −80° C. for further assays.
as §2, with “instructions (Alexandre et al., 2006; Min et al., 2003). The” for “instructions. Briefly, the”, “nm respectively.” for “nm.”

BV-2 cells [7] = test: NO release (nitrite) assay in LPS-activated BV-2 cells (Example 18); type: cell-based, mouse; conditions: for Nitrite reduction (%): 72 hours LPS following 3 hours treatment; for reduction of nitrite release: 24 hours LPS following 3 hours pre-treatment
Experimental: as §3
Production of NO was assayed by measuring the levels of nitrite, the stable NO metabolite, in the culture medium. Accumulation of nitrite in the medium was determined by colorimetric assay with Griess reagent system, which uses sulfanilamide and N-(1-Naphthyl)-ethylene diamine. From the treated cells in the medium, 100 μL of the supernatant was incubated with 50 μL of Griess reagent 1 (sulfanilamide) and 50 μL of Griess reagent 2 N-(1-Naphthyl)-ethylenediamine for 10 min at room temperature. The absorbance at 540 nm was then measured, and nitrite concentration was determined using a calibration curve prepared using nitrite standards.

[8] = system: Mouse microglial cell line (BV-2); test: In vitro cytotoxicity, MTT assay (Example 19); conditions: 0.5, 2 and 8 mM
Source text: In vitro cytotoxicity of the conjugate, dendrimer and NAC, at conditions similar to that used in the efficacy assays, was investigated by MTT assay. Mouse microglial cell line (BV-2) was obtained from Children's Hospital of Michigan Cell Culture Facility. These cells were used because the eventual in vivo applications seek to target microglial cells that become activated as a result of neuroinflammation.
The lipopolysaccharide (LPS) was used to activate the cells for the ROS assay. For the cytotoxicity study, the LPS treatment was continuous for 24 hours. For both groups, the LPS concentration used was 100 ng/ml. Three concentrations of NAC were studied: 0.5 mM, 2 mM and 8 mM. For the conjugate assays, the concentrations used corresponded to equivalent NAC doses of the free drug treatment groups. Similarly, the dendrimer assays were run by using dendrimer concentrations that were equivalent to conjugate treatments. Control groups included cells receiving only LPS and no other treatment and cells with no LPS or other treatment. The proportion of viable cells in the treated group was compared to that of negative control. The cell viability is expressed as mean±SD of three samples per group, and assessed by t-test.

BV-2 cells [9] = test: TNF-α ELISA in LPS-activated BV-2 cells (Example 18); type: cell-based, mouse; conditions: 72 hours LPS following 3 hours treatment
Experimental: as §3
The procedure for cell culture and drug treatment was the same as described in previous section. TNF-α secretion was measured using an ELISA kit according to the manufacturer's instructions. In brief, 50 μL of supernatant from each sample was added in 96-well ELISA plates. Biotinylated antibody reagent was applied to each well and the plate was incubated at room temperature for 2 hours. After washing the plate with PBS-Tween 20, diluted streptavidin-HRP was added, and the plate was incubated at room temperature for 30 min. After washing the plate, the premixed TMB substrate solution was added. The plate was developed in the dark for 30 min, and read at 450 nm using a microplate reader. The concentration of TNF-α was calculated using murine rTNF-α as standard.

[10] = cited from earlier work; remark: listed apart in the source
[11] = GSH triggered NAC release from PAMAM dendrimer-NAC conjugates (RP-HPLC); type: physicochemical
Experimental: Appropriate amounts of PAMAM-S—S-NAC conjugate were dissolved in release media (Citrate or PBS buffers) to form a solution of 1 mg/ml PAMAM-S—S-NAC. One of the thiol containing molecules (GSH, Cys or BSA) was added to the conjugates to form 10 mM, 2 mM, 0.5 mM 0.1 mM or 2 μM overall thiol group concentrations and to initiate the release of NAC. All samples were run as triplicates for statistical analysis.
As control samples, conjugates were analyzed in both release media in the absence of reducing agents. The solutions were kept at 37° C. and stirred continuously. At predetermined time intervals, […] of samples were withdrawn and immediately analyzed with RP-HPLC and the concentrations of analytes were determined by using appropriate calibrations prepared under same conditions.
Dendrimer NAC conjugates were analyzed for their drug release mechanism and kinetics in the presence of GSH, Cys and BSA. Buffer solutions with pH 5 (Citrate Buffer) and pH 7.4 (Phosphate Buffered Saline) containing various concentrations of these thiol containing moieties were used in release studies.
All GSH concentrations studied were between average plasma (2 μM) and intracellular (2-10 mM) GSH levels. Various GSH concentrations were used in order to determine the GSH dependent release kinetics of the conjugate. The conjugate solutions contained 730 μM NAC in the conjugated form (1 mg/ml PAMAM-S—S-NAC) at the beginning of the release studies. GSH concentration in the release media was compared to the conjugated NAC concentrations in the release solutions for analysis of the release kinetics and mechanism.
The release of NAC from the conjugates was investigated in the presence of GSH at intracellular and extracellular concentrations. It was assumed that the release of NAC would occur by the disulfide exchange reaction. GSH and its oxidized form (GSSG) are responsible for forming the intracellular redox buffer. Intracellularly, GSH takes the role of attacking thiolate moiety and gets oxidized in the process while cleaving the existing disulfide bonds.
as §1

[12] = as above; type: physicochemical; conditions: absence of GSH, or GSH levels in the blood (20 μM)
Solubility in PBS/H2O = type: physicochemical
[13] = 10 mM GSH, PBS pH 7.4, within 1 hour

N[C@@H](CCC(=O)N[C@@H](CS)C(=O)NCC(=O)O)C(=O)O [GSH, glutathione]
converted to oxidized form [1]: 25%
pKa of thiol group [2]: ~8.8

CC(=O)N[C@@H](CS)C(=O)O [NAC, N-acetyl-L-cysteine, reference compound]
reduction in H2O2 levels (BV-2 cells [3]; 0.5 mM NAC (equivalent), 24 hours): 6%
reduction in H2O2 levels (BV-2 cells [3]; 0.5 mM NAC (equivalent), 72 hours): 7%
reduction in H2O2 levels (BV-2 cells [3]; 8 mM, 24 hours): 57%
reduction in H2O2 levels (BV-2 cells [3]; 8 mM, 72 hours): 125%
cytotoxicity (microglial cells): relatively nontoxic
reduction of nitrite levels (BV-2 cells [4]): 30-40%
reduction of H2O2 levels (BV-2 cells [5]): 30-40%
H2O2 reduction (%) (BV-2 cells [6]; 0.5 mM): 5.54 ± 6.38%
H2O2 reduction (%) (BV-2 cells [6]; 2 mM): 22.28 ± 8.33%
H2O2 reduction (%) (BV-2 cells [6]; 8 mM): 41.31 ± 2.33%
effect on ROS production (BV-2 cells [6]): did not affect ROS production
Nitrite reduction (%) (BV-2 cells [7]; 0.5 mM): 10.52 ± 6.43%
Nitrite reduction (%) (BV-2 cells [7]; 2 mM): 34.66 ± 3.22%
reduction of nitrite release (BV-2 cells [7]; 8 mM): ~70%
Nitrite reduction (%) (BV-2 cells [7]; 8 mM): 72.70 ± 5.56%
converted to oxidized form [1]: 25%
cytotoxicity [8]: no cytotoxicity
TNF-α reduction (%) (BV-2 cells [9]; 0.5 mM): 34.98 ± 2.43%
TNF-α reduction (%) (BV-2 cells [9]; 2 mM): 35.13 ± 4.44%
TNF-α reduction (%) (BV-2 cells [9]; 8 mM): 44.57 ± 4.35%
biological half-life ([10]; in the blood stream): 1.5 hours
bioavailability ([10]; reduced by binding to plasma proteins): less than 8%

PAMAM-CO-GS—S-NAC [PAMAM-(COOH)46-(NAC)18]
cytotoxicity (microglial cells): relatively nontoxic; also recorded: non-toxic
NAC payload in GS-S-NAC (NAC-GSH) form [11, 13]: 6%
NAC payload released in free form [11, 13]: 39%
total NAC release [11, 13]: 45%
NAC payload in GS-S-NAC form ([11]; 10 mM GSH, at 17 hours): 6%
free NAC content ([11]; 10 mM GSH, at 17 hours): 46%
NAC release ([11]; PBS buffer without GSH, 17 hours): did not release any of the NAC they carried
NAC payload found as GS-S-NAC or NAC-NAC ([11]; plasma GSH concentration (2 μM)): 1%
release of free NAC ([11]; plasma GSH concentration (2 μM), 17 hours): did not release any detectable levels of free NAC
H2O2 reduction (%) (BV-2 cells [6]; 0.5 mM): 25%
H2O2 reduction (%) (BV-2 cells [6]; 0.5 mM, listed as D-NAC): 30.81 ± 8.08%
H2O2 reduction (%) (BV-2 cells [6]; 2 mM): 51.13 ± 4.93%
H2O2 reduction (%) (BV-2 cells [6]; 8 mM): 68%
H2O2 reduction (%) (BV-2 cells [6]; 8 mM, listed as D-NAC): 68.75 ± 4.14%
effect on ROS production (BV-2 cells [6]): significant inhibition of ROS production at 2 mM and 8 mM
drug release [12]: no drug release
reduction of nitrite release (BV-2 cells [7]; 0.5 mM NAC equivalent): ~61%
Nitrite reduction (%) (BV-2 cells [7]; 0.5 mM): ~60%
Nitrite reduction (%) (BV-2 cells [7]; 0.5 mM, listed as D-NAC): 60.82 ± 6.05%
Nitrite reduction (%) (BV-2 cells [7]; 2 mM): 64.85 ± 5.12%
Nitrite reduction (%) (BV-2 cells [7]; 8 mM): 75.75 ± 1.85%
free drug dosage with comparable activity relative to conjugate dose (8 mM vs 0.5 mM) (BV-2 cells [7]; lowest conjugate dose 0.5 mM NAC): 16 ×
Solubility in PBS/H2O (Solubility in PBS/H2O): Highly
TNF-α reduction (%) (BV-2 cells [9]; 0.5 mM): ~67%
TNF-α reduction (%) (BV-2 cells [9]; 0.5 mM, listed as D-NAC): 67.46 ± 3.91%
TNF-α reduction (%) (BV-2 cells [9]; 2 mM): 74.43 ± 3.54%
TNF-α reduction (%) (BV-2 cells [9]; 8 mM): 77.37 ± 3.31%
